Assays:
CCR-1 = target: T1, CCR-1 (Homo sapiens, UniProt P32246); experiment: Immunoprecipitation and immunoblotting with specific antibodies; assay type: binding
T1 construct: Chemokine receptors expressed on monocytes include CCR-1, CCR-2, CCR-5, and CXCR-4; endogenous in cells
T1 sequence (P32246 1-355): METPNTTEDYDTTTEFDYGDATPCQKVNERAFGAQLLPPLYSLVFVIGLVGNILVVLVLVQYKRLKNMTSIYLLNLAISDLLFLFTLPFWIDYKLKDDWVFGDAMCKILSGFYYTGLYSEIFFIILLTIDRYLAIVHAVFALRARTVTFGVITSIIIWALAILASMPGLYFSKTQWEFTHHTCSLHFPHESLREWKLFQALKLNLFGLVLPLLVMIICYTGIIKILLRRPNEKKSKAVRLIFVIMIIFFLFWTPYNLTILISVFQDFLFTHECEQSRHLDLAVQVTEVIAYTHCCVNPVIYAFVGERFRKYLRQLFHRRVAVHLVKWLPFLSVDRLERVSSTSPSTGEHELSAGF

[1] = test system: human peripheral blood monocytes; experiment: Monocyte migration assay in vitro (96-well micro Boyden chamber); assay type: cell-based
Source text: Human monocytes were purified from venous blood of normal volunteers essentially as described previously (Nakagawara, et al., J. Clin. Invest. 68:1243-53 (1981)). In brief, after erythrocytes were sedimented by addition of 6% dextran saline solution (I part to 5 parts heparinized blood), the leukocytes were collected, washed twice, and resuspended in Ca^2+ and Mg^2+-free HBSS containing 5% autologous serum. Mononuclear cells were acquired by centrifugation of the leukocyte suspension on Ficoll Paque at 1,500 rpm for 15 min. The cells were resuspended in RPMI 1640 containing 10% autologous serum and allowed to adhere to sterile tissue culture plates for 30 min in a humidified incubator at 5% CO2 and 37° C. After incubation, non-adherent cells were removed by washing the plates three times with PBS at 37° C. […] To detach and harvest the adhered monocytes, 1 mM EDTA-PBS containing 5% serum was added and the plates were incubated on ice for 30 min. The monocytes were washed twice with HBSS and resuspended in RPMI 1640 with 0.1% autologous serum for the migration assay. The viability of monocytes was determined by trypan blue exclusion and was more than 98%. In some experiments, monocytes were purified according to another method using a Percoll discontinuous gradient described previously (Chuluyan & Issekutz, J. Clin. Invest. 92:2768-77 (1993)).
(§1) Monocyte migration was examined by using 96-well micro Boyden chambers with 5 μm-pore size filters (Neuro Probe, Inc., Gaithersburg, Md.) as described previously (Falk, et al., J. Immunol. Meth. 33:239-47 (1980)), Chertov, et al., J. Biol. Chem. 271:2935-40 (1996)). Briefly, after the indicated concentrations of galectin-3 in RPMI 1640 were applied to the lower chambers, purified monocyte suspensions (2.5-5.0×10^4/well) were applied to the upper chambers. After incubation of the chambers for 1 h in a humidified incubator at 5% CO2 and 37° C., the filters were washed once with PBS and processed with Wright stain. The number of monocytes on the bottom side of the filters was counted in 5 to 10 high-power fields. Monocyte migration was calculated from the average numbers of the counted cells and expressed as % of input cells in a well.
In assays using inhibitory reagents, the purified monocytes were pretreated with or without the indicated concentrations of B2C10 (Liu, et al., Biochemistry 35:[…] (1996)) or anti-DNP IgG1 (Liu, et al., J. Immunol. 124:2728-31 (1980)) as an isotype-matched control mAb, galectin-3C, or PTX at 37° C. for 30 min. Then the cells were applied to the upper chambers in the presence of these inhibitors at the same concentrations used in the pretreatment. In the assays using lactose and sucrose, the sugars were added to the lower chambers at the initiation of the migration assay.

[2] = test system: human alveolar macrophages; experiment: Migration of human alveolar macrophages in vitro; assay type: cell-based; conditions: two separate experiments; bell-shaped dose-response curves
Source text: Human macrophages were obtained by culturing peripheral blood monocytes in vitro for 7 days as previously described (Fantuzzi, et al., Blood 94:875-83 (1999)). Human alveolar macrophages were obtained from bronchoalveolar lavage (BAL) fluid according to a previously described protocol (Sugimoto et al, Am. Rev. Respir. Dis. 139:1329-35 (1989)). The purity of the macrophages was over 90% and the viability was over 99%.
as §1

human monocytes = experiment: Measurement of Ca2+ influx in monocytes (Indo-1 AM); assay type: cell-based
Experimental: Intracellular concentrations of Ca^2+ were measured by using Indo-1 AM according to a previously described method (Lopez, et al., Cytometry 10:165-73 (1989)). Purified monocytes were resuspended in HBSS containing 1 mM Ca^2+, 1 mM Mg^2+, and 5% autologous serum, and incubated with […] Indo-1 AM for 45 min at 37° C. The cells were washed once, resuspended in the same buffer, and stimuli and inhibitors were added at the time points specified in the Figure Legends. Intracellular Ca^2+ concentration was measured by monitoring light emission at 405 and 485 nm to an excitation wavelength of 355 nm, using an AMINCO-Bowman series 2 luminescence spectrometer (Rochester, N.Y.).

eosinophils = experiment: Eosinophil attraction in vitro (not shown); assay type: cell-based
CXCR-4 = target: T2, CXCR-4 (Homo sapiens, UniProt P61073); experiment: Immunoprecipitation and immunoblotting with specific antibodies; assay type: binding
T2 construct: Chemokine receptors expressed on monocytes include CCR-1, CCR-2, CCR-5, and CXCR-4; endogenous in cells
T2 sequence (P61073 whole entry): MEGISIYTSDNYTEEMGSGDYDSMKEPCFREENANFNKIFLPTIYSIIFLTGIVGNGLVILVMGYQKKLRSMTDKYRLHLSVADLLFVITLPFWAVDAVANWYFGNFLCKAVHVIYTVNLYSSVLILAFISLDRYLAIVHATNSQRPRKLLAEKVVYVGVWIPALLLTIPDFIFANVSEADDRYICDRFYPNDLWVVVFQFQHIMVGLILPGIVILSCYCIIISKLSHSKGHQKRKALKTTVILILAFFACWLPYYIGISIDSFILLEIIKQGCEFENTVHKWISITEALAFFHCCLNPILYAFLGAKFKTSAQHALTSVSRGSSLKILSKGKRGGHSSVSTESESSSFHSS

neutrophils = experiment: Neutrophil migration; assay type: cell-based
CCR-5 = target: T3, CCR-5 (Homo sapiens, UniProt P51681); experiment: Immunoprecipitation and immunoblotting with specific antibodies; assay type: binding
T3 construct: Chemokine receptors expressed on monocytes include CCR-1, CCR-2, CCR-5, and CXCR-4; endogenous in cells
T3 sequence (P51681 whole entry): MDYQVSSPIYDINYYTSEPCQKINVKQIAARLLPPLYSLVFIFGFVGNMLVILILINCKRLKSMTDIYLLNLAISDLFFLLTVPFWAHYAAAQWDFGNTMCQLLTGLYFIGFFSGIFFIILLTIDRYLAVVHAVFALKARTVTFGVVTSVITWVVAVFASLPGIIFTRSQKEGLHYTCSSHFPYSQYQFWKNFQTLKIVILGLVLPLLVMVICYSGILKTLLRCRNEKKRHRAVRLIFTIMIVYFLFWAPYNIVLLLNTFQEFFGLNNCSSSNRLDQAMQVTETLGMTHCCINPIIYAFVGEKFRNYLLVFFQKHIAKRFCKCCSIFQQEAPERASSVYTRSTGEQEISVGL

galectin-3: Recombinant human galectin-3, a 26 kDa beta-galactoside-binding protein (lectin)
Interaction with chemokine receptor (CCR-1): Neither have interactions between galectin-3 and these four chemokine receptors been detected
Monocyte migration (% of input cells) ([1]; 10 nM galectin-3, subsequent experiments n=21, control 4.26±1.3%, p<0.001): 7.01±2.1%
Monocyte migration (% of input cells) ([1]; 100 nM galectin-3 in lower chamber, n=4 experiments, diluent control 3.54±2.2%): 6.25±1.3%
Monocyte migration (% of input cells) ([1]; 300 nM galectin-3 in lower chamber, n=4 experiments, diluent control 3.54±2.2%): 9.8±0.33%
Monocyte migration with galectin-3 in both chambers ([1]; 1 μM galectin-3 added to both chambers): no significant increase in monocyte migration over the background
Monocyte migration (% of input cells) ([1]; 1 μM galectin-3 in lower chamber, n=4 experiments, diluent control 3.54±2.2%): 12.4±1.2%
Effect on monocyte migration compared with MCP-1 ([1]; 1 μM galectin-3 vs MCP-1 at 100 ng/ml (11.6 nM)): comparable to that of human recombinant MCP-1
Monocyte migration (% migrated cells of the total cells) ([1]; checkerboard: galectin-3 above 0 nM, below 10 nM): 8.66 ± 0.22%
Monocyte migration (% migrated cells of the total cells) ([1]; checkerboard: galectin-3 above 0 nM, below 100 nM): 9.96 ± 0.72%
Monocyte migration (% migrated cells of the total cells) ([1]; checkerboard: galectin-3 above 0 nM, below 1000 nM): 13.1 ± 1.33%
Monocyte migration (% migrated cells of the total cells) ([1]; checkerboard: galectin-3 above 10 nM, below 0 nM): 7.55 ± 0.79%
Monocyte migration (% migrated cells of the total cells) ([1]; checkerboard: galectin-3 above 10 nM, below 10 nM): 8.88 ± 1.09%
Monocyte migration (% migrated cells of the total cells) ([1]; checkerboard: galectin-3 above 10 nM, below 100 nM): 9.23 ± 2.23%
Monocyte migration (% migrated cells of the total cells) ([1]; checkerboard: galectin-3 above 10 nM, below 1000 nM): 11.5 ± 3.49%
Monocyte migration (% migrated cells of the total cells) ([1]; checkerboard: galectin-3 above 100 nM, below 0 nM): 10.7 ± 0.86%
Monocyte migration (% migrated cells of the total cells) ([1]; checkerboard: galectin-3 above 100 nM, below 10 nM): 11.4 ± 2.11%
Monocyte migration (% migrated cells of the total cells) ([1]; checkerboard: galectin-3 above 100 nM, below 100 nM): 10.5 ± 2.10%
Monocyte migration (% migrated cells of the total cells) ([1]; checkerboard: galectin-3 above 100 nM, below 1000 nM): 12.5 ± 2.87%
Monocyte migration (% migrated cells of the total cells) ([1]; checkerboard: galectin-3 above 1000 nM, below 0 nM): 3.30 ± 2.82%
Monocyte migration (% migrated cells of the total cells) ([1]; checkerboard: galectin-3 above 1000 nM, below 10 nM): 3.25 ± 3.11%
Monocyte migration (% migrated cells of the total cells) ([1]; checkerboard: galectin-3 above 1000 nM, below 100 nM): 4.55 ± 3.69%
Monocyte migration (% migrated cells of the total cells) ([1]; checkerboard: galectin-3 above 1000 nM, below 1000 nM): 3.50 ± 2.41%
Nature of the effect on monocytes in vitro ([1]; high concentrations (1 μM)): chemotactic
Nature of the effect on monocytes in vitro ([1]; low concentrations (10 and 100 nM)): chemokinetic
Migration of human alveolar macrophages [2]: migrated towards galectin-3
Induction of Ca2+ influx in human monocytes (human monocytes; 1 μM galectin-3): induced a Ca^2+ influx
Extent of Ca2+ influx compared with MCP-1 (human monocytes; 1 μM galectin-3 vs 100 ng/ml MCP-1, three separate experiments): lower than that by the chemokine
Cross-desensitization of Ca2+ influx with monocyte-reactive chemokines (human monocytes; 1 μM galectin-3 vs MCP-1, MIP-1α, SDF-1α at 100 ng/ml, either order): no cross-desensitization
Induction of Ca2+ influx in human monocytes (human monocytes; galectin-3 concentrations lower than 1 μM): not
Attraction of eosinophils in vitro (eosinophils): does not attract eosinophils
Interaction with chemokine receptor (CXCR-4): Neither have interactions between galectin-3 and these four chemokine receptors been detected
Concentration required for maximum migration of neutrophils compared with monocytes (neutrophils): Lower concentrations
Interaction with chemokine receptor (CCR-5): Neither have interactions between galectin-3 and these four chemokine receptors been detected

— patent US20060148712A1, “Monocyte chemoattractant activity of galectin-3” (priority 2000, published 2006)
